In US5358945A, “Pyrimidine compound and pharmaceutically acceptable salts thereof” (Mitsui Petrochemical Industries, Ltd., priority 1990, dated 1994):

Tests used:
Mouse neuro 2a cells = experiment: Neurite outgrowth of mouse neuroblastoma neuro 2a cells (Table 7); format: cell-based; conditions: mean ± S.D.
Description: The biological activities in vitro of the compounds of formula (I) on cells of the nervous system were tested. The cells tested were mouse neuroblastoma cell line neuro-2a (Dainippon Pharmaceutical Co., Ltd.) which have been established as the cells of the nervous system. The above nerve cells were grown in an incubator at 37° C. in the presence of 5% carbon dioxide gas exponentially, and the cultured for a certain period of time together with the compounds of formula (I).
The effects of the compounds of this invention on neuroblastoma cells were examined by the following method.
Mouse neuro 2a cells in the logarithmic growth period in the Dulbecco's modified Eagle's medium [DMEM, containing 100 units/ml of penicillin G sodium and 100 micrograms/ml of streptomycin sulfate] containing 10% of FCS were seeded in a 48-well plate so that the number of cells was 1,000 cells/well, and cultured for one day in 0.25 ml of the culture fluid in each well in an incubator containing 5% of carbon dioxide gas in air at 37° C. The medium was replaced by a medium containing each antibiotics and FCS and the cells were further cultured for 24 hours. Then, a 4% aqueous glutaraldehyde solution in the same amount as a medium (0.25 ml) was added, and the culture was left to stand at room temperature for 2 hours to fix the cells. After washing with water, a 0.05% aqueous solution of methylene blue was added to stain the cells. Under a microscope, the number of cells containing outgrown neurites (cells having at least one neurite with a length of at least two times as large as the long diameter of the cell) was counted visually, and the proportion of these cells in the entire cells was calculated. The well was observed over 5 or more visual fields (at least 2% of the entire surface area of the well) continuous to the left and right from a mark put at the center of the well, and more than 200 cells was counted. One drug compound was used in 6 different concentrations at most, and three runs were conducted for each concentration.

[1] = tested on: Mouse neuroblastoma cells NS-20Y; experiment: Neurite appearance in mouse neuroblastoma NS-20Y cells (Table 8); format: cell-based;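 also: cells grown in polyornithine-coated dishes, with timing counted from the start of culture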
mouse = experiment: Acute toxicity in mouse (Table 10); format: in vivo
Description: The acute toxicity of the compounds of the invention was examined by the following method.
Male ddy-strain 5-week old mice, 4-6 per group, were used as experimental animals. Each of the compounds was dissolved or suspended in saline and administered perorally (p.o.) or intraperitoneally (i.p.), and the toxicity of the compound was assessed 24 hours after the administration.

[2] = i.p., 24 hours after administration

| Structure (SMILES) | Ratio of the number of cells having neurites with a length of at least two times as large as the diameter of cells to the total number of cells (Mouse neuro 2a cells; 0.03 mM) [%] | Ratio of the number of cells having neurites with a length of at least two times as large as the diameter of cells to the total number of cells (Mouse neuro 2a cells; 0.1 mM) [%] | Ratio of the number of cells having neurites with a length of at least two times as large as the diameter of cells to the total number of cells (Mouse neuro 2a cells; 0.3 mM) [%] | Ratio of the number of cells having neurites with a length of at least two times as large as the diameter of cells to the total number of cells (Mouse neuro 2a cells; 1 mM) [%] | The number of cells in which neurites appeared/Total number of cells ([1]; 24 hour, 0.1 mM) | The number of cells in which neurites appeared/Total number of cells ([1]; 24 hour, 0.2 mM) | The number of cells in which neurites appeared/Total number of cells ([1]; 24 hour, 0.5 mM) | The number of cells in which neurites appeared/Total number of cells ([1]; 48 hour, 0.1 mM) | The number of cells in which neurites appeared/Total number of cells ([1]; 48 hour, 0.2 mM) | The number of cells in which neurites appeared/Total number of cells ([1]; 48 hour, 0.5 mM) | Estimated LD50 (mouse; in vivo, ip) [mg/kg] | Ratio of the number of cells having neurites with a length of at least two times as large as the diameter of cells to the total number of cells (Mouse neuro 2a cells; 0.01 mM) [%] | Estimated LD50 (mouse; [2]) [mg/kg] |
| --- | --- | --- | --- | --- | --- | --- | --- | --- | --- | --- | --- | --- | --- |
| CC1CCN(c2nccc(N3CCCC3=O)n2)CC1 [Compound 304] | 3.7 ± 1.2 | 6.8 ± 1.0 | 17.7 ± 2.9 | 16.3 ± 4.5 | 8/50 | 12/50 | 16/50 | 7/50 | 14/50 | 17/50 | 250 to 500 |  |  |
| O=C(c1ccccc1)N1CCN(c2ccnc(N3CCCCC3)n2)CC1 [Compound 232] |  |  |  |  |  | 3/50 |  | 4/50 |  |  | > 1000 |  |  |
| COC(=O)c1ccc(C(=O)N(C)c2ccnc(N3CCC(c4ccccc4)CC3)n2)cc1 [Compound 120] | 12.6 ± 1.6 | 8.6 ± 5.5 |  |  |  | 3/50 |  |  | 3/50 |  | > 1000 |  |  |
| CN(C(=O)c1ccc2c(c1)C(=O)OC2=O)c1ccnc(N2CCC(c3ccccc3)CC2)n1 [Compound 168] |  |  | 8.7 ± 2.0 | 14.6 ± 3.7 |  | 3/50 |  |  |  | 3/50 | > 1000 |  |  |
| CCC1CCN(c2nccc(N3CCCC3=O)n2)CC1 [Compound 312] | 4.1 ± 1.2 | 12.7 ± 2.8 |  |  | 6/50 | 13/50 | 17/50 | 8/50 | 13/50 | 18/50 |  | 3.8 ± 0.6 | > 500 |
| CN1CCN(c2nccc(N3CCCC3=O)n2)CC1 [Compound 408] | 4.9 ± 0.2 |  | 4.4 ± 0.2 |  |  | 7/50 | 10/50 |  | 8/50 | 11/50 |  |  | > 500 |
| O=C1CCCN1c1ccnc(N2CCSCC2)n1 [Compound 400] | 5.0 ± 0.1 | 6.3 ± 0.7 | 11.2 ± 1.5 | 12.1 ± 1.4 |  | 8/50 | 9/50 |  | 11/50 | 13/50 |  |  | > 500 |
| O=C(O)/C=C\C(=O)O.O=CN1CCN(c2ccnc(N3CCCCC3)n2)CC1 [Compound 224, 4-(N-formylpiperazino)-2-piperidino pyrimidine maleate] |  | 8.9 ± 1.5 | 21.4 ± 3.3 |  | 2/50 |  |  | 3/50 |  |  |  |  |  |
| CC(=O)N(C)c1ccnc(N2CCSCC2)n1 [Compound 216] |  |  | 4.4 ± 1.3 | 15.8 ± 3.2 |  | 3/50 | 3/50 |  |  | 4/50 | 500 to 1000 |  |  |
| CN(C(=O)c1ccc(O)cc1)c1ccnc(N2CCC(c3ccccc3)CC2)n1 [Compound 264] |  |  |  |  |  |  | 3/50 |  | 3/50 |  |  |  | > 1000 |
| CN(C)c1nccc(N2CCCC2=O)n1 [Compound 432] | 4.0 ± 2.2 | 4.2 ± 1.7 |  | 5.1 ± 1.2 |  |  | 6/50 |  | 7/50 | 8/50 |  |  | > 500 |
| O=C1CCCCN1c1ccnc(N2CCC(c3ccccc3)CC2)n1 [Compound 296] |  |  |  |  |  |  |  |  |  |  |  |  | > 1000 |
| CC(=O)N1CCN(c2ccnc(N3CCC(c4ccccc4)CC3)n2)CC1 [Compound 256] |  |  |  |  | 3/50 | 3/50 |  | 4/50 | 3/50 |  |  |  | > 1000 |
| O=C(c1ccccc1)N1CCN(c2ccnc(N3CCC(c4ccccc4)CC3)n2)CC1 [Compound 248] |  |  |  |  |  | 3/50 |  | 3/50 |  |  |  |  | > 1000 |
| O=C1CCCN1c1ccnc(N2CCCCC2)n1 [Compound 272] |  | 10.5 ± 2.5 | 25.1 ± 2.7 | 20.4 ± 4.9 |  |  |  |  |  |  | 250 to 500 | 5.4 ± 0.4 |  |
| CC(=O)N1CCN(c2ccnc(N3CCCCC3)n2)CC1 [Compound 240] |  |  |  |  | 3/50 |  | 5/50 |  | 5/50 | 6/50 | > 1000 |  |  |
| CN(C(=O)c1ccc2ccccc2c1)c1ccnc(N2CCC(c3ccccc3)CC2)n1 [Compound 144] |  | 4.2 ± 0.6 |  |  |  |  | 3/50 | 4/50 |  |  |  | 5.1 ± 0.9 |  |
| O=C1CCCN1c1ccnc(N2CCC(c3ccccc3)CC2)n1 [Compound 280] |  | 6.9 ± 1.4 | 7.5 ± 1.1 | 8.1 ± 6.3 |  |  |  |  |  |  |  | 7.1 ± 1.7 | > 1000 |
| CN(C(=O)c1ccccc1)c1ccnc(N2Cc3ccccc3C2)n1 [Compound 184] |  | 0.9 ± 0.8 |  |  | 2/50 |  |  | 3/50 |  |  |  | 0.5 ± 0.8 |  |
| O=C1CCCCN1c1ccnc(N2CCCCC2)n1 [Compound 288] |  |  |  |  |  |  |  |  |  |  |  |  | > 1000 |
| O=CN1CCN(c2ccnc(N3CCCCC3)n2)CC1 [Compound 223] |  |  |  |  |  |  |  |  |  |  |  |  | > 1000 |
